Measurements taken from patent publication US20200317660A1, “Quinazolinone Compound and Application Thereof” (LUOXIN PHARMACEUTICAL (SHANGHAI) CO., LTD., priority 2017, published 2020).
Like-named read-outs stand apart in the source and are kept apart here.

Assays:
[1] = target: T1, PI3Kα (Homo sapiens, UniProt P42336); experiment: In vitro test of enzyme activity (ADP-Glo lipokinase), PI3K alpha; assay type: biochemical; details: 40 μM ATP, 50 μM PIP2:3PS, 120 min
T1 construct: purchased Millipore 14-602-K
Description: (§1) 1. In Vitro Test of Enzyme Activity
(§2) The lipokinase reaction was carried out under the conditions of a suitable substrate and ATP, followed by two steps to detect the kinase activity with the ADP-Glo™ kit. The first step was terminating the kinase reaction, wherein the remaining ATP was completely removed and only ADP was left; the second step was adding kinase detection reagents to convert ADP to ATP, accompanied by luciferin/luciferase reaction. Finally, the output value of fluorescence value was converted into kinase activity.
(§3) Experimental materials and equipments:
(§4) 2. Kit: ADP-Glo™ Lipokinase and PIP2:3PS Kit (Promega # V1792)
(§5) The kit contains: 1 mM PIP2:3PS, 10× lipid dilution buffer, 1 M magnesium chloride, 10 mM ATP, 10 mM ADP, ADP-Glo reagent, detection buffer and detection substrate.
(§6) 3. Reaction plate: OptiPlate-384, white and transparent (PerkinElmer #6007299).
(§7) 1. 10× reaction buffer: 500 mM HEPES, pH 7.5, 500 mM NaCl, 9 mM MgCl2; BSA: 10% stock solution, homemade.
(§8) 2. Final test system conditions: 1× reaction system: 50 mM HEPES, 50 mM NaCl, 3 mM MgCl2, 0.01% BSA (freshly prepared on the day of the experiment), 1% DMSO (v/v)+/−compound
(§9) 3. Reaction system: 3 μL mixture of the enzyme and the substrate (1:1)+2 μL ATP/MgCl2 mixture+5 μL ADP-Glo reagent+10 μL detection reagent.
(§10) The detailed experimental procedures are as follows:
(§11) 1. Compound dilution: 50 nL 100×compound/DMSO was transferred to the test well plate with Echo. • For PI3Kα, the compound was diluted three-fold from the highest concentration of 0.111 mM for a total of 10 concentrations. • For PI3Kβ/PI3Kδ/PI3Kγ, the compound was three-fold diluted from the highest concentration of 1.11 mM for a total of 10 concentrations.
(§12) (1) The compound to be tested was prepared and 50 nL of 100 plus compound solution or DMSO was added to the corresponding well plate.
(§13) (2) 3.33 plate reaction buffer was prepared.
(§14) (3) 3.33 solution PIP2:3PS was prepared, PIP2:3PS was thawed for at least 1 minute before use.
(§15) (4) 2.5 mM containing 5.25 mM MgCl2 was prepared.
(§16) (5) 3.33 PI3Kα/PI3Kβ/PI3Kδ/PI3Kγ solution was prepared.
(§17) (6) The lipokinase solution and the PIP2:3PS solution were mixed in a volume ratio of 1:1.
(§18) (7) 3.33: lipokinase buffer and PIP2:3PS solution were mixed in a volume ratio of 1:1.
(§19) (8) 3 μL of buffer solution and PIP2:3PS were added to the first and the second columns of the well plate.
(§20) (9) 3 μL of the mixed solution of the enzyme and PIP2:3PS was added to the wells except the first and the second columns, centrifuged for 10 seconds (1000 rpm) and incubated at 23° C. for 20 minutes.
(§21) (10) 2 μL […] was added and well was shaken.
(§22) (11) The well plate was covered and shaken for about 30 s, then the well plate was incubated at 23° C. for 2 hours.
(§23) (12) 5 μL of ADP-Glo reagent containing 10 mM MgCl2 was added.
(§24) (13) The well plate was centrifuged at 1000 rpm for 10 seconds, and the well plate was then covered, shaken for about 30 seconds, and incubated at 23° C. for 60 minutes.
(§25) (14) 10 μL kinase detection reagent was added.
(§26) (15) The well plate was centrifuged at 1000 rpm for 10 seconds, and then incubated at 23° C. for 60 minutes.
(§27) (16) The fluorescence value was measured on the Envision instrument.

[2] = target: T2, PI3Kβ (Homo sapiens, UniProt P42338); experiment: In vitro test of enzyme activity (ADP-Glo lipokinase), PI3K beta; assay type: biochemical; details: 40 μM ATP, 50 μM PIP2:3PS, 120 min
T2 construct: purchased Promega V1751
Description: as §1, §2, §3, §4, §5, §6, §7, §8, §9, §10, §11, §12, §13, §14, §15, §16, §17, §18, §19, §20, §21, §22, §23, §24, §25, §26, §27

[3] = target: T3, PI3Kδ (Homo sapiens, UniProt O00329); experiment: In vitro test of enzyme activity (ADP-Glo lipokinase), PI3K delta; assay type: biochemical; details: 40 μM ATP, 50 μM PIP2:3PS, 120 min
T3 construct: purchased Millipore 14-604-K
Description: as §1, §2, §3, §4, §5, §6, §7, §8, §9, §10, §11, §12, §13, §14, §15, §16, §17, §18, §19, §20, §21, §22, §23, §24, §25, §26, §27

[4] = target: T4, PI3Kγ (Homo sapiens, UniProt P48736); experiment: In vitro test of enzyme activity (ADP-Glo lipokinase), PI3K gamma; assay type: biochemical; details: 25 μM ATP, 50 μM PIP2:3PS, 120 min
T4 construct: purchased Millipore 14-558-K
Description: as §1, §2, §3, §4, §5, §6, §7, §8, §9, §10, §11, §12, §13, §14, §15, §16, §17, §18, §19, §20, §21, §22, §23, §24, §25, §26, §27

[5] = system: phosphorylation of PI3K downstream protein Akt in MCF7 cells; experiment: In vitro test of cells activity: ELISA of Akt phosphorylation in MCF7 cells; assay type: cell-based; details: 2 h compound, insulin 10 μg/mL stimulation, pAkt ELISA, read-out: MCF7 Cell IC50
Description: 2. In vitro test of cells activity
By the method of ELISA, the inhibition level of the test compound on the phosphorylation of PI3K downstream protein Akt in the signaling pathway was determined in MCF7 cells line to reflect the cells activity of the compound.
Cell culture medium: complete cell culture medium (RPMI 1640+10% serum+1% L-glutamine+1% double antibody)
Serum-free medium (without serum, RPMI 1640+1% L-glutamine+1% double antibody)
The detailed procedures areas follows:
(1) MCF7 cells (ATCC® HTB-22™) were inoculated into a 96-well plate at 100 μL of cell complete medium per well (2.5*10^4 cells per well), and the cells were incubated at 37° C. and 5% CO2 for 24 hours.
(2) The complete cell culture medium was replaced with 100 μL of serum-free medium, and incubated for starvation overnight.
(3) The compound was prepared (The initial concentration of the compound is 1 mM, which was subjected to a three-fold dilution in 10 concentrations, and the compound of each concentration was then diluted 100-fold with serum-free medium). 25 μL of the diluted compound was added to the cells orifice plate.
(4) The cells were incubated at 37° C. and 5% CO2 for 2 hours.
(5) The cells in the well plate were stimulated with 10 μg/mL insulin (Sigma # I9278-5 mL), incubated for 30 minutes, and then centrifuged at 1000 rpm for 5 minutes at room temperature.
(6) 250 μL of 1× balanced salt solution (Invitrogen, #14065-056, 4° C., containing 1 mM/L Na3VO4) was added to each well to wash the cells once.
(7) 100 μL of lysis buffer (trimethylolaminomethane hydrochloride, Invitrogen, #15567-1000 ml) was added to each well, shaken at 4° C. for 60 minutes, and then centrifuged at 4000 rpm for 4 minutes.
(8) The following procedures were carried out according to the instructions of ELISA kit (TGR BioSciences # EKT002).

[6] = In vivo DMPK study in mice after a single administration; design: species or system female Balb/c mice; details: for Cmax / Oral DNAUC (area under the dose normalization curve): oral
Description: Experimental objective: female Balb/c mice were used as the test animals, and the blood concentration of the compound was determined and the pharmacokinetic behavior was evaluated after a single administration.
Experimental operation: 12 healthy adult female Balb/c mice were selected, 6 for intravenous injection group and 6 for oral administration group. The compound to be tested was mixed with an appropriate amount of intravenous injection group vehicle (10% HP-betaCD: 10% solutol=1:1, pH=8), vortex-mixed and sonicated to prepare a 1.0 mg/mL clear solution, followed by filtration for subsequent use; the vehicle in the oral group was 0.5% MC/0.2% Tw80. After the test compound and the vehicle were mixed, it was vortex-mixed and sonicated to prepare a 1.0 mg/mL homogeneous suspension for subsequent use. After an intravenous administration at a dose of 1 mg/kg or an oral administration at the dose of 2 mg/kg and 10 mg/kg, whole blood of the mice was collected for a certain period of time to prepare plasma. The drug concentration was analyzed by LC-MS/MS method, and Phoenix WinNonlin software was used (Pharsight, USA) to calculate the pharmacokinetic parameters.
Cmax: the highest concentration of the drug in the body; F %: oral bioavailability; Oral DNAUC: area under the dose normalization curve; Vd: apparent volume of distribution; Cl: clearance rate; T1/2: half-life.

T1 sequence (P42336 whole entry): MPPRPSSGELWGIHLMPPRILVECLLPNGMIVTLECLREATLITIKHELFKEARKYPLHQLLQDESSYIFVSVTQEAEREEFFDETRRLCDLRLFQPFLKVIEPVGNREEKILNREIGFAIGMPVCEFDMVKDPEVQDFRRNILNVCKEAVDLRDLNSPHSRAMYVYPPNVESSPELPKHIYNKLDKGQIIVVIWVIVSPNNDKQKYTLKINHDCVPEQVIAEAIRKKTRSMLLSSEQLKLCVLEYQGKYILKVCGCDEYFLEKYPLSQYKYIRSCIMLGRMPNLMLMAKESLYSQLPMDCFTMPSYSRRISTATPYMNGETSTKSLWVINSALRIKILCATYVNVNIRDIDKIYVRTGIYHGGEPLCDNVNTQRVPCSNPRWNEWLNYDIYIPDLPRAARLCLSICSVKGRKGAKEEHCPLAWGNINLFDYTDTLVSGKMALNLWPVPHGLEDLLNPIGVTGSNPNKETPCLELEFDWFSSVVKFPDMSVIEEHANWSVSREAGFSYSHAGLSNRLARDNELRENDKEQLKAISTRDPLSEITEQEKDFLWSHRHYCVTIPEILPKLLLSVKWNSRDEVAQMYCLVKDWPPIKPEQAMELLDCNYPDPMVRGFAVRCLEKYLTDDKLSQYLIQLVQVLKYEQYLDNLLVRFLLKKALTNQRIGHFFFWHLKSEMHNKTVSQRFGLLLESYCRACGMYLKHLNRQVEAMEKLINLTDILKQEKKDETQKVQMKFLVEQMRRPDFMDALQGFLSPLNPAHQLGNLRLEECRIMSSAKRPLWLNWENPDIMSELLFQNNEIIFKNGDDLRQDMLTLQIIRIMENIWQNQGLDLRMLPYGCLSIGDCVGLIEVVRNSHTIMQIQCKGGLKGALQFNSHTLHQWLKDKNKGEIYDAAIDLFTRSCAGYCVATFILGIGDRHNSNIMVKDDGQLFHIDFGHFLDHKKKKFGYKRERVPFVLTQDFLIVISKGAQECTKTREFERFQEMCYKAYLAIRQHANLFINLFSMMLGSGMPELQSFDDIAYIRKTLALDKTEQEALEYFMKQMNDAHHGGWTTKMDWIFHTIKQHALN
T1 sequence (P27986 whole entry partner): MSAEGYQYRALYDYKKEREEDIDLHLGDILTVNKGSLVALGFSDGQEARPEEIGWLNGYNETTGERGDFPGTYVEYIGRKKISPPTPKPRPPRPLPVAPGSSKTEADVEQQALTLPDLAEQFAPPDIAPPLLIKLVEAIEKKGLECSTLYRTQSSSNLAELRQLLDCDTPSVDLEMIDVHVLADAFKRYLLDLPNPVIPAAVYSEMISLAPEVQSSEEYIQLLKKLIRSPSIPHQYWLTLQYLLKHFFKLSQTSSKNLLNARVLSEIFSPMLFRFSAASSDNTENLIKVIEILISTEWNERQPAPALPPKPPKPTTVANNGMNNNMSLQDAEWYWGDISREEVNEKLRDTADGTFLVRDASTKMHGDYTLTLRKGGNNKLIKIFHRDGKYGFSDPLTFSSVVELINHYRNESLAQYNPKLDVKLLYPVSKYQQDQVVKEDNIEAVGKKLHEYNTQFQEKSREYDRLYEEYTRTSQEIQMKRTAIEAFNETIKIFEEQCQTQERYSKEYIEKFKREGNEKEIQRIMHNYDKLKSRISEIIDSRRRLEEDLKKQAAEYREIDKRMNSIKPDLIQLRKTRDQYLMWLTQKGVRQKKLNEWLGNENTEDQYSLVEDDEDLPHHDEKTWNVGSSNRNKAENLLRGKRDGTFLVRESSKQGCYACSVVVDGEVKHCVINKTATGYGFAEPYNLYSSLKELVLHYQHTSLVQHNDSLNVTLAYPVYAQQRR
T4 sequence (P48736 whole entry): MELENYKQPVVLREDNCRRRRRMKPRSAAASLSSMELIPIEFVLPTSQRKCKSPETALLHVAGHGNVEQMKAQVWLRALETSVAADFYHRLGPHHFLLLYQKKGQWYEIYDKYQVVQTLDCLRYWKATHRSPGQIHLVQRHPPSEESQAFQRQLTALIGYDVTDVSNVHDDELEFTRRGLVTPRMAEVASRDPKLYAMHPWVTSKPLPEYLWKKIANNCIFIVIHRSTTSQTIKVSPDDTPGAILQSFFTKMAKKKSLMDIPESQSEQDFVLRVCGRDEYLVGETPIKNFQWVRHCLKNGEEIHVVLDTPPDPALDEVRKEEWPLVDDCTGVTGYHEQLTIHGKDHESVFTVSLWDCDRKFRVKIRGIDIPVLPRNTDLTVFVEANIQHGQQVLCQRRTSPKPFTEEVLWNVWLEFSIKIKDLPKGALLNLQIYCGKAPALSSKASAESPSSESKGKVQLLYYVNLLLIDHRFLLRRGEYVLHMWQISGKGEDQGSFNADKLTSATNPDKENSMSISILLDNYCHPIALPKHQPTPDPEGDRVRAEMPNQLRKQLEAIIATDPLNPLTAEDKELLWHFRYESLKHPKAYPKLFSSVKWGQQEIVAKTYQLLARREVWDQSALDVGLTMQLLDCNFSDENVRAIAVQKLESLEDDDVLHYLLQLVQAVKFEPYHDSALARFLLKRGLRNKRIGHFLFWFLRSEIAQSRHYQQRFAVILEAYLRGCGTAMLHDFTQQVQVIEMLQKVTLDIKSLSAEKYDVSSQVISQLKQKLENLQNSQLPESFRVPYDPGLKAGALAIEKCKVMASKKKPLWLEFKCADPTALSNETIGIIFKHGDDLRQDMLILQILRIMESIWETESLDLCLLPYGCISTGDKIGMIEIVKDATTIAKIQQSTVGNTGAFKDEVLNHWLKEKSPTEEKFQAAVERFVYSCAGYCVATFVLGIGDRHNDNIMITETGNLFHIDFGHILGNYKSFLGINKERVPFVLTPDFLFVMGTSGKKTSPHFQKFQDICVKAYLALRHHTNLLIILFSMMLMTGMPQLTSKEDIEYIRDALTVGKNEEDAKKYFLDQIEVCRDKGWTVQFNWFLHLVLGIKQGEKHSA
T2 sequence (P42338 whole entry): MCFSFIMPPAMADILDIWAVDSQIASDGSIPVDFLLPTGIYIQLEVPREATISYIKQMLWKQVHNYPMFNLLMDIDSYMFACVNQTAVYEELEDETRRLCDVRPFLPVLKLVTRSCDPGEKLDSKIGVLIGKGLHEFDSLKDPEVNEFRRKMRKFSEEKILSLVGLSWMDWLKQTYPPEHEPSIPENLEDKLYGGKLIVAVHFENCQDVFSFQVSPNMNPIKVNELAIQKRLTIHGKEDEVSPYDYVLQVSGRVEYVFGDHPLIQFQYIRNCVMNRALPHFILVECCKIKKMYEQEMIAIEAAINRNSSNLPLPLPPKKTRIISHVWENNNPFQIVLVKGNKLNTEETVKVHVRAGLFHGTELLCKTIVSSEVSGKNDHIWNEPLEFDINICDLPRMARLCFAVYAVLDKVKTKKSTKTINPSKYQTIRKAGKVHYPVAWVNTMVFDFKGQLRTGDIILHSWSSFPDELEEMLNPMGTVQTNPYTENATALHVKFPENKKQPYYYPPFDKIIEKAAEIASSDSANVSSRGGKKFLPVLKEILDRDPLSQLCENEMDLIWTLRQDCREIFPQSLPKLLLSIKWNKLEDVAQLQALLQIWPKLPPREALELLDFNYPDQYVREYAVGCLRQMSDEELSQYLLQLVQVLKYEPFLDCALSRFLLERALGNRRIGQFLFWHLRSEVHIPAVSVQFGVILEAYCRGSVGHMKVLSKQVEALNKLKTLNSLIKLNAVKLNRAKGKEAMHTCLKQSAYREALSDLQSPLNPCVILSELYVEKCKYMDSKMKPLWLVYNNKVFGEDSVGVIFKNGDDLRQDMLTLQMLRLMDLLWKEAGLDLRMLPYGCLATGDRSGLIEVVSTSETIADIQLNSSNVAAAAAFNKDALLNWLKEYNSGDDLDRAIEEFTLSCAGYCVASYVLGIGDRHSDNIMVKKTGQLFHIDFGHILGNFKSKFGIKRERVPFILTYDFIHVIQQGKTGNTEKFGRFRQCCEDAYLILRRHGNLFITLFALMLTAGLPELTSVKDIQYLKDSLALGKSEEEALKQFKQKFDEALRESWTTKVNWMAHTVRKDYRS
T2 sequence (P27986 whole entry partner): as the sequence (P27986 whole entry partner) above
T3 sequence (O00329 whole entry): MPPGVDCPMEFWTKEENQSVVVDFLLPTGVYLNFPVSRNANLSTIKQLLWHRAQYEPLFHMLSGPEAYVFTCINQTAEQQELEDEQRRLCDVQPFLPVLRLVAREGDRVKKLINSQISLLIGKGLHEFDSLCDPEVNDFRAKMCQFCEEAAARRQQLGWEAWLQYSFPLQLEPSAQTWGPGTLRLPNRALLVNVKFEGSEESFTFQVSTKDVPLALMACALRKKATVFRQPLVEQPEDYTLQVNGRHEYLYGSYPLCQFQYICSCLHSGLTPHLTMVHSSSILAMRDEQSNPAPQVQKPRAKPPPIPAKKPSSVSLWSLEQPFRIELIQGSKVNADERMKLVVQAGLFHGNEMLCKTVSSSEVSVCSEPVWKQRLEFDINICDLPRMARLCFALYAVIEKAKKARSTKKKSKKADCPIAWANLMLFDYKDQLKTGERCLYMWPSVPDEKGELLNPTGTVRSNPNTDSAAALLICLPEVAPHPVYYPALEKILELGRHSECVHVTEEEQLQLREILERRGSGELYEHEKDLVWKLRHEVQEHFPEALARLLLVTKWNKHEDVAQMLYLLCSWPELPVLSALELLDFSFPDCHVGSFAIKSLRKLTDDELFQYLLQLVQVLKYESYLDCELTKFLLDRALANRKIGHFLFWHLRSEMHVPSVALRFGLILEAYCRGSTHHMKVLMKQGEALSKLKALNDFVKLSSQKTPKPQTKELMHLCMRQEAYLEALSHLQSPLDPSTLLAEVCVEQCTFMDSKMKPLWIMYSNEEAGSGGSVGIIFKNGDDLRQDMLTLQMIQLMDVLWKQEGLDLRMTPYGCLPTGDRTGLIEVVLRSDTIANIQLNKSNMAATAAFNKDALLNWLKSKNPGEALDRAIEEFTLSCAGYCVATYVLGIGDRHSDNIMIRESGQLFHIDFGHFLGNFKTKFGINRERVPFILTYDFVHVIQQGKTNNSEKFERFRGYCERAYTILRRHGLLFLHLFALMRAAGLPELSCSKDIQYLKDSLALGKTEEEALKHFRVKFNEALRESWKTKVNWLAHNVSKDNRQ
T3 sequence (P27986 whole entry partner): as the sequence (P27986 whole entry partner) above

IC50 [1] [nM] | IC50 [2] [nM] | IC50 [3] [nM] | IC50 [4] [nM] | IC50 [5] [nM] | Cmax ([6]; 2 mpk) [µM] | Oral DNAUC (area under the dose normalization curve) ([6]; 2 mpk) [nM · h/mpk] | Cmax ([6]; 10 mpk) [µM] | Oral DNAUC (area under the dose normalization curve) ([6]; 10 mpk) [nM · h/mpk] | Cl (clearance rate) ([6]; intravenous 1 mg/kg) [mL/min/kg] | Intravenous injection T1/2 ([6]; intravenous 1 mg/kg) [h] | Vd (apparent volume of distribution) ([6]; intravenous 1 mg/kg) [L/kg] | F % (oral bioavailability) ([6]; oral 10 mpk vs intravenous 1 mg/kg) [%] | IC50 ([5]; Homo sapiens, MCF7, 2 h) [nM] | SMILES
0.29 | 19.9 | 0.47 | 2.03 | 71.5 | – | – | – | – | – | – | – | – | – | COc1ncc(-c2ccc3ncn(CC(C)C(N)=O)c(=O)c3c2)cc1NS(=O)(=O)c1sc(C)nc1C (single isomer, unassigned) [WX024]
0.41 | 13.2 | 0.47 | 1 | 23.9 | – | – | – | – | – | – | – | – | – | COc1ncc(-c2ccc3ncn(CC(C)C(N)=O)c(=O)c3c2)cc1NS(=O)(=O)c1sc(C)nc1C (single isomer, unassigned) [WX025]
4.9 | 1120 | 29.7 | 45.2 | 72 | – | – | – | – | – | – | – | – | – | COCCNC(=O)C(C)Cn1cnc2ccc(-c3cnc(OC)c(NS(=O)(=O)c4ccc(F)cc4Cl)c3)cc2c1=O (single isomer, unassigned) [WX065]
2.47 | 399 | 18.8 | 18.3 | 67.4 | 3.39 | 1047 | – | – | – | – | – | – | – | COc1ncc(-c2ccc3ncn(CC(C)C(=O)NCCF)c(=O)c3c2)cc1NS(=O)(=O)c1ccc(F)cc1Cl (single isomer, unassigned) [WX067]
3.35 | 355 | 30.7 | 41.3 | 19 | – | – | 5 | 1372 | – | – | – | – | – | CNC(=O)C(C)Cn1cnc2ccc(-c3cnc(OC)c(NS(=O)(=O)c4ccc(F)cc4)c3)cc2c1=O (single isomer, unassigned) [WX087]
5.11 | 537 | 26.2 | 97.3 | 5.7 | – | – | – | – | – | – | – | – | – | CNC(=O)C(C)Cn1cnc2ccc(-c3cnc(OC)c(NS(=O)(=O)c4ccc(C)cc4C)c3)cc2c1=O (single isomer, unassigned) [WX091]
20.8 | 2280 | 403 | 360 | 13.4 | – | – | 18.3 | 12262 | 1.29 | 3.55 | 0.324 | 58.4 | – | CNC(=O)C(C)Cn1cnc2ccc(-c3cnc(OC)c(NS(=O)(=O)c4cc(C(F)(F)F)cc(C(F)(F)F)c4)c3)cc2c1=O (single isomer, unassigned) [WX103]
10.5 | 1150 | 41.1 | 29.2 | 193 | – | – | – | – | – | – | – | – | – | CNC(=O)C(C)Cn1cnc2c(F)cc(-c3cnc(OC)c(NS(=O)(=O)c4ccc(F)cc4Cl)c3)cc2c1=O (single isomer, unassigned) [WX105]
7.06 | 720 | 47.4 | 48.3 | 9.04 | – | – | 8.34 | 882.0 | – | – | – | – | – | CNC(=O)C(C)Cn1cnc2ccc(-c3cnc(OC)c(NS(=O)(=O)c4ccc(F)cc4C)c3)cc2c1=O (single isomer, unassigned) [WX181]
1.16 | 68.5 | 3.88 | 4.57 | – | – | – | – | – | – | – | – | – | 16.8 | COc1ncc(-c2ccc3ncn(CCC(N)=O)c(=O)c3c2)cc1NS(=O)(=O)c1ccc(F)cc1Cl [WX001]
1 | 279 | 4.53 | 19.6 | – | – | – | – | – | – | – | – | – | 279 | Cc1nc(C)c(S(=O)(=O)Nc2cc(-c3ccc4ncn(CCCC(=O)NC(C)C)c(=O)c4c3)cnc2C)s1 [WX006]
1.22 | 95.9 | 5.25 | 15.2 | – | – | – | – | – | – | – | – | – | 209 | CNC(=O)[C@H]1C[C@H](n2cnc3ccc(-c4cnc(C)c(NS(=O)(=O)c5ccc(F)cc5Cl)c4)cc3c2=O)C1 [WX013]
5.71 | 82.4 | 2.02 | 20.6 | – | – | – | – | – | – | – | – | – | 39.9 | COc1ncc(-c2ccc3ncn(CC4(C(N)=O)CC4)c(=O)c3c2)cc1NS(=O)(=O)c1ccc(F)cc1Cl [WX023]
5.4 | 183 | 25.6 | 39.9 | – | – | – | – | – | – | – | – | – | 134 | COc1ncc(-c2ccc3ncn(CC(N)C(N)=O)c(=O)c3c2)cc1NS(=O)(=O)c1ccc(F)cc1Cl (centres unmarked) [WX040]
5.39 | 633 | 37.5 | 37.8 | 53.6 | – | – | – | – | – | – | – | – | – | CNC(=O)[C@@H](C)Cn1cnc2ccc(-c3cnc(OC)c(NS(=O)(=O)c4cc(F)cc(F)c4)c3)cc2c1=O [WX192]
3.42 | 432 | 16.4 | 17 | 84.9 | – | – | – | – | – | – | – | – | – | CNC(=O)[C@@H](C)Cn1cnc2ccc(-c3cnc(OC)c(NS(=O)(=O)c4ccc(F)cc4C(F)(F)F)c3)cc2c1=O [WX194]
